One compound from US5204327A, “Treatment of cerebral edema with ANP pharmaceutical compositions” (Ashi Kasei Kogyo Kabushiki Kaisha, priority 1988, dated 1993) can be followed below.

Experiment [1] concerns vasogenic cerebral edema caused by cold injury. Kind of experiment: Effect on experimental vasogenic cerebral edema (investigation of administration time). In kind it is in vivo, male Crj:CD (SD) rats. Particulars: for Water content of injured cerebral hemisphere (the mean ± standard error): peptide 100 μg/kg, glycerol solution 10 ml/kg, 24 hours after injury. On the procedure: Using 212 male Crj:CD (SD) rats weighing 300 to 400 g, model animals of vasogenic cerebral edema caused by cold injury were prepared according to the method of Naruse et al. (Brain and Nerve, 33 (6): 569-575 (1981).
Peptide (II) obtained in Reference Example 1 was diluted with a physiological saline so that the peptide concentration became […]. The solution containing the peptide was continuously administered to a predetermined number of rats through the tail vein thereof in an amount of 3 ml per kg of body weight in 90 min so that the total dose of the administered peptide became 100 μg per kg of body weight. Thus, there were obtained six peptide (II)-administered groups.
As a control (solvent), 3 ml per kg of body, weight of the physiological saline was administered to a predetermined number of rats in substantially the same manner as mentioned above, to thereby obtain six physiological saline-administered groups.
As a control for the peptide, an aqueous 10% w/v glycerol solution containing 5% w/v fructose and 0.9% w/v sodium chloride was administered to a predetermined number of rats in substantially the same manner as mentioned above so that the total volume of the administered solution became 10 ml per kg of body weight, to thereby obtain six glycerol-administered groups.
24 hours after the rats were subjected to injury, rats were exsanguinated under ether anesthesia to kill them. Then, cerebra were extracted from the killed rats and each of the cerebra was individually divided into two cerebral hemispheres, namely, a hemisphere having ischemic part and a hemisphere having no ischemic part. The water content of each of the hemispheres was measured in substantially the same manner as in Example 1. In Table 3, the mean and the standard error of the water content of a brain tissue are shown together with the number of rats (n) subjected to experiment in each group.

Experiment [2] deals with ischemic cerebral edema caused by occlusion of middle cerebral artery. The experiment is described as follows: Effect on experimental ischemic cerebral edema (MCA occlusion, Tamura model). In kind it is in vivo, male Wistar rats. The following applies: rats. On the procedure:
Using 41 male Wistar rats weighing 250 to 350 g, model animals of ischemic cerebral edema caused by occlusion of middle cerebral artery (hereinafter referred to as "MCA") were prepared according to the method of Tamura et al. (Journal of Cerebral Blood Flow and Metabolism, 1, 53-69 (1981)).
Peptide (II) obtained in Reference Example 1 was diluted with a physiological saline so that the peptide concentration became 100 μg/10 ml. The solution containing the peptide was continuously administered to eleven rats through the tail vein thereof in an amount of 10 ml per kg of body weight in 20 min so that the total dose of the administered peptide became 100 μg per kg of body weight.
The administration was conducted 6 times according to the following program. The first administration was conducted 30 minutes after the occlusion of MCA. The second administration was conducted in the morning of the next day of the first administration (2nd day). The third administration was conducted after 6 hours from the second administration. The fourth administration was conducted in the morning of the next day of the third administration (3rd day). […]
After one hour from the sixth administration, that is, 3 days after the rats had been subjected to occlusion of MCA, the rats were sacrificed. […] The water content of each of the hemispheres was measured.
The water content of a brain tissue was calculated by the following formula: [formula] wherein: W1 : weight of the cerebral hemisphere (wet basis)
W2 weight of the cerebral hemisphere (dry basis), which is measured after drying the wet cerebral hemisphere at 95° to 100° C. for 3 days.
The water contents calculated were statistically analyzed by the T-test to determine whether or not there is a significant difference between the water content of each of the groups to which peptide (II), peptide (III) and glycerol were individually administered and the water content of the control group to which physiological saline was administered. […]

For experiment [3], the system named is vasogenic cerebral edema caused by cold injury. The experiment is described as follows: Effect on experimental vasogenic cerebral edema (cold injury). In kind it is in vivo, male Crj:CD (SD) rats. The following applies: rats. On the procedure: Using 42 male Crj:CD (SD) rats weighing 300 to 400 g, model animals of vasogenic cerebral edema caused by cold injury were prepared according to the method of Naruse et al. (Brain and Nerve, 33 (6): 569-575 (1981)). (Administration method)
Peptide (II) obtained in Reference Example 1 was diluted with a physiological saline so that the peptide concentration became […]. The solution containing the peptide was continuously administered to eleven rats through the tail vein thereof in an amount of […] of body weight so that the total dose of the administered peptide became 100 μg per kg of body weight, to thereby obtain a peptide (II)-administeredgroup.
Peptide (III) was administered to eight rats in the same manner as described above except that peptide (III) was used instead of peptide (II), to thereby obtain a peptide (III)-administered group.
As a control (solvent), 3 ml per kg of body weight of the physiological saline was administered to eleven rats in substantially the same manner as mentioned above, to thereby obtain a physiological saline-administered group.
As a control for the peptide, an aqueous 10% w/v glycerol solution containing 5% w/v fructose and 0.9% w/v sodium chloride was administered to twelve rats so that the total volume of the administered solution became 10 ml per kg of body weight, to thereby obtain a glycerol-administered group.
The administration of each of the peptide (II) solution, peptide (III) solution and physiological saline was started one hour before the making of cold injury and completed in 90 minutes. On the other hand, the administration of the glycerol solution was started 23 hours after the making of cold injury and completed in 30 minutes in accordance with the ordinary clinical method, so that the total volume of the administered glycerol solution became 10 ml/kg of body weight.
24 hours after the rats had been subjected to cold injury, rats were sacrificed under ether anesthesia. […]
The water content of each of the hemispheres was measured in substantially the same manner as in Example 1. […]

[4] abbreviates: 3 days after MCA occlusion, peptide 100 μg/kg (glycerol 1 g/kg) tail vein, 6 administrations.
Where [5] appears, read: 24 hours after cold injury, peptide 100 μg/kg tail vein started one hour before injury, 90 min, glycerol solution 10 ml/kg started 23 hours after injury.

In the case of `OCC(O)CO` [Glycerol, glycerol], the “increase in water content of a cerebral hemisphere, compared to physiological saline-administered groups” value in experiment [1] (administered just after making the cold injury) is on record as “significantly inhibited”. Further, the “Water content of injured cerebral hemisphere (the mean ± standard error)” value in experiment [1] (administration 3 hours after the making of cold injury) stood at 81.08 ± 0.20; in experiment [1] (administration 6 hours after the making of cold injury), 81.24 ± 0.19; in experiment [1] (administration 22 hours after the making of cold injury) it was 81.05 ± 0.17; in experiment [1] (administration during the making of cold injury) it was 80.79 ± 0.10; in experiment [1] (administration just after the making of cold injury), 80.77 ± 0.14; in experiment [1] (administration just before the making of cold injury), 81.22 ± 0.20. Moreover, in experiment [1] (remaining administration times (all except just after the cold injury)), the “increase in water content of the injured cerebral hemisphere, compared to physiological saline-administered groups” value is recorded as “not significantly inhibited”. In experiment [2] (setting [4]), the “Water content of brain tissue (the mean ± standard error), hemisphere having ischemic part” value was 79.34 ± 0.15. In experiment [2] (setting [4]), the “Water content of brain tissue (the mean ± standard error), hemisphere having no ischemic part” value amounted to 78.51 ± 0.14. Besides, the “increase in water content of the cerebral hemisphere having ischemic part, compared to physiological saline-administered group” value in experiment [2] (MCA occlusion, T-test) is “significantly inhibited”. Besides, the “Water content of brain tissue (the mean ± standard error), injured cerebral hemisphere” value in experiment [3] (setting [5]) is recorded as 80.65 ± 0.23. Also, the “Water content of brain tissue (the mean ± standard error), not injured cerebral hemisphere” value in experiment [3] (setting [5]) turned out to be 79.62 ± 0.19. For the same compound, the “increase in water content of the injured cerebral hemisphere, compared to physiological saline-administered group” value in experiment [3] (cold injury) is “not so markedly inhibited”.
